Assay [1] addresses Cyclin-dependent kinase 9 (Homo sapiens) (UniProt P50750). Description: Inhibition of CDK9-related signaling in human NCI-H69 cells assessed as decrease in RNA polymerase II phosphorylation at Ser5 residue at 0.5 to 10 nM incubated for 24 hrs by Western blot analysis. Type of assay: cell-based. The conditions noted are these: dose 0.5-10 nM. In general terms: A western blot detects proteins with antibodies after separation by electrophoresis.

Assay [2] concerns the target T1, Protein cereblon/Cyclin-dependent kinase 9 (Homo sapiens, UniProt P50750+Q96SW2). The assay can be described thus: In vivo PROTAC activity at CRBN/CDK9 in female BALB/c nude mouse xenografted with human NCI-H446 cells assessed as induction of CDK9 degradation in tumor at 25 mg/kg, po measured after 24 hrs by Western blot analysis. Type of assay: functional, organism-based. For orientation: In xenograft studies the graft and the host belong to different species.

In assay [3] the target is Cyclin-dependent kinase 9 (Homo sapiens) (UniProt P50750). The assay can be described thus: Inhibition of CDK9-related signaling in human NCI-H69 cells assessed as decrease in RNA polymerase II phosphorylation at Ser2 residue at 0.5 to 10 nM incubated for 24 hrs by Western blot analysis. To be noted: dose 0.5-10 nM. Type of assay: cell-based.
Cyclin-dependent kinase 9 (Homo sapiens), sequence (P50750 whole entry): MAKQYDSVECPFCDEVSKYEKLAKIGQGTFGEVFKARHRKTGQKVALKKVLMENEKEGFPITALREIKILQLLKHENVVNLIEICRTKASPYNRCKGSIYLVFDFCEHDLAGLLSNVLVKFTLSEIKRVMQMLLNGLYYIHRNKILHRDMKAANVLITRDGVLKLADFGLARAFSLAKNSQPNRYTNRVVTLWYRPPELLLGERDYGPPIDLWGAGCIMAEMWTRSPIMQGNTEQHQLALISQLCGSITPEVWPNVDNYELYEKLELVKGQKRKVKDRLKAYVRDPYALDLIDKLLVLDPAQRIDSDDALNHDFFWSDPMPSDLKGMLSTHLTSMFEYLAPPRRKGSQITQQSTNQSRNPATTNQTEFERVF
Assay [4] has as its system Small cell lung cancer cell line. Description: Antitumor activity against LDI-2025-362195 patient derived Small cell lung cancer cell line xenografted in BALB/c nude mouse assessed as reduction in tumor growth at 25 mg/kg, po administered once daily for 7 days. Type of assay: functional, organism-based. The conditions noted are these: Homo sapiens, time 7.0 day.
The target in assay [5] is Cyclin-dependent kinase 13/Cyclin-K (Homo sapiens) (UniProt Q14004+O75909). The assay can be described thus: Inhibition of CDK13/Cyclin K (unknown origin) at 10 nM relative to control. It counts as protein-complex assay.
Cyclin-dependent kinase 13/Cyclin-K (Homo sapiens), sequence (O75909 whole entry, looked up): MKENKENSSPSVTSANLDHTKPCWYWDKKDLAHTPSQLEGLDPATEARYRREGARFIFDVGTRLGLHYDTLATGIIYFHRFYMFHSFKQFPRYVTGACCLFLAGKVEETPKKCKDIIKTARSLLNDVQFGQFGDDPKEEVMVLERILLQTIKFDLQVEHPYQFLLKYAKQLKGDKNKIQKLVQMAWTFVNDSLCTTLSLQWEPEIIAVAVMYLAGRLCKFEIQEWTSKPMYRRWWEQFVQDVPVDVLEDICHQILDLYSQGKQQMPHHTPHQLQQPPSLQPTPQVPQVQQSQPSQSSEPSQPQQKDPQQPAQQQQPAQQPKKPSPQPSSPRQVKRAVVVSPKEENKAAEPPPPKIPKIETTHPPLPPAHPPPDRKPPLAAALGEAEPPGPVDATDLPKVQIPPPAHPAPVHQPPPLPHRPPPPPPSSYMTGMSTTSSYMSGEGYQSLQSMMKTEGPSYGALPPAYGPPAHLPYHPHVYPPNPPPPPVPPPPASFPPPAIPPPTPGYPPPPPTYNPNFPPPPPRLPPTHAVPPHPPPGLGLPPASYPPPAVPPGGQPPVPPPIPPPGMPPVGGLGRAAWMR
Cyclin-dependent kinase 13/Cyclin-K (Homo sapiens), sequence (Q14004 whole entry, looked up): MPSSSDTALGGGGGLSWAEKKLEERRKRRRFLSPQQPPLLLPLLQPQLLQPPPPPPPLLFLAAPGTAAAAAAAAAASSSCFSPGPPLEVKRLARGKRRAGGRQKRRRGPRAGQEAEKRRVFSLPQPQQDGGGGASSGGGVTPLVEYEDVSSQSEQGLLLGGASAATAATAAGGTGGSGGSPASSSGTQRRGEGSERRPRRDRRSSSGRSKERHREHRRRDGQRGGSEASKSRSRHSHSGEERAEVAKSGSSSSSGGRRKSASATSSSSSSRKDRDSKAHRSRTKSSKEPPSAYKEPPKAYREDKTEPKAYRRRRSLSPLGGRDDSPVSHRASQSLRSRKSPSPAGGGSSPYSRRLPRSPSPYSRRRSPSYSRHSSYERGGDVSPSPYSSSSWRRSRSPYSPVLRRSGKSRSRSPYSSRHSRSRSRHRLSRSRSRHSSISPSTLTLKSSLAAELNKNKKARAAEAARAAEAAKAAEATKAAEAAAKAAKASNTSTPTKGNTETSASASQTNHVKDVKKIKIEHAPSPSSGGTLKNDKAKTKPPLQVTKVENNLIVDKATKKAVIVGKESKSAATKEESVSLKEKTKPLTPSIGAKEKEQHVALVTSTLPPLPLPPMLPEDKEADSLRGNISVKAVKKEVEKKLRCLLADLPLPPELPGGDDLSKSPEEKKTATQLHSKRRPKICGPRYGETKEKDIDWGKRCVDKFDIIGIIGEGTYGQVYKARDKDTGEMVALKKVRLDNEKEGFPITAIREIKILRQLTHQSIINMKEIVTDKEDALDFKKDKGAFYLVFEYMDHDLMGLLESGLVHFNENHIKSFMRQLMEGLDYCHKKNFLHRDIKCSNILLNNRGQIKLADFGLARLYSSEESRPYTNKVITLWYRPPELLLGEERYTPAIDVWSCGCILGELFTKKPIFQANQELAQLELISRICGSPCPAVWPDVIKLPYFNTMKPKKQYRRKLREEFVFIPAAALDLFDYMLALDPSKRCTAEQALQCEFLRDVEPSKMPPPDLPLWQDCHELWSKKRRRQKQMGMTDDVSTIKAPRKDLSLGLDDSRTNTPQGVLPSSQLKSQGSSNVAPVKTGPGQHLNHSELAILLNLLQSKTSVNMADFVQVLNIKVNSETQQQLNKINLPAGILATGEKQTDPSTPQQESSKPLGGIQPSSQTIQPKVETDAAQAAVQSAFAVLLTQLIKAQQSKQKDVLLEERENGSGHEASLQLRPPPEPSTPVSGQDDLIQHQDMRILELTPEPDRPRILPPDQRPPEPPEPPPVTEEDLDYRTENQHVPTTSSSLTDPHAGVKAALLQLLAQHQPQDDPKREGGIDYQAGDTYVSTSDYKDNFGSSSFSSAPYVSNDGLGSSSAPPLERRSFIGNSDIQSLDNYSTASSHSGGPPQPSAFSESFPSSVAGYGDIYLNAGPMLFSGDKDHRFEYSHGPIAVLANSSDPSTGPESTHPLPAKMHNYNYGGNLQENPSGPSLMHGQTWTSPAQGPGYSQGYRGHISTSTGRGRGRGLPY
The test system of assay [6] is NCI-H446. Description: Antitumor activity against human NCI-H446 cells xenografted in female NU-NU mouse model assessed as decrease in Ki67 level in tumor at 12.5 to 25 mg/kg, po administered once daily for 15 days by immunohistochemical staining based analysis. Type of assay: functional, organism-based. To be noted: dose 12.5-25 mg/kg, time 15.0 day.
Assay [7] relates to Small cell lung cancer cell line. Description: Antitumor activity against LDI-0025-362145 patient derived Small cell lung cancer cell line xenografted in BALB/c nude mouse assessed as reduction in tumor growth at 25 mg/kg, po administered once daily for 7 days. The conditions noted are these: Homo sapiens, time 7.0 day. Type of assay: functional, organism-based.
Assay [8] has the same test system. The assay can be described thus: Antitumor activity against LDI-0060-200770 patient derived Small cell lung cancer cell line xenografted in BALB/c nude mouse assessed as reduction in tumor growth at 25 mg/kg, po administered once daily for 7 days. It counts as functional, organism-based. The conditions noted are these: Homo sapiens, time 7.0 day.
The subject of assay [9] is NCI-H446. Description: Inhibition of colony formation in human NCI-H446 cells at 2 to 4 nM incubated for 8 days by crystal violet staining based analysis. It counts as functional, cell-based. The conditions noted are these: dose 2-4 nM, time 8.0 day.
In assay [10] the target is T1, Protein cereblon/Cyclin-dependent kinase 9. The assay can be described thus: PROTAC activity at CRBN/CDK9 in human NCI-H69 cells assessed as induction of CDK9 degradation at 10 nM by Western blot analysis. Type of assay: cell-based. To be noted: time 0.5-12 hrs.
For assay [11], the system named is DMS-114. The assay can be described thus: Inhibition of colony formation in human DMS-114 cells at 2 to 4 nM incubated for 8 days by crystal violet staining based analysis. Type of assay: functional, cell-based. To be noted: dose 2-4 nM, time 8.0 day.
The test system of assay [12] is NCI-H446. Description: Antitumor activity against human NCI-H446 cells expressing luciferase-GFP xenografted in female NU-NU mouse model assessed as decrease in systemic metastasis at 12.5 to 25 mg/kg, po administered for 19 days. It counts as functional, organism-based. The conditions noted are these: dose 12.5-25 mg/kg, time 19.0 day.
Assay [13] deals with T1, Protein cereblon/Cyclin-dependent kinase 9. The assay can be described thus: PROTAC activity at CRBN/CDK9 in human NCI-H446 cells assessed as induction of CDK9 degradation by measuring reduction in half-life incubated upto 24 hrs in presence of cycloheximide by Western blot analysis. Type of assay: cell-based.
The subject of assay [14] is NCI-H69. The assay can be described thus: Induction of apoptosis in human NCI-H69 cells assessed as increase in p53 level incubated for 36 hrs by Western blot analysis. Type of assay: functional, cell-based.
The subject of assay [15] is NCI-H69. The assay can be described thus: Induction of apoptosis in human NCI-H69 cells at 1 nM by microscopic analysis. Type of assay: functional, cell-based.
Assay [16] deals with T1, Protein cereblon/Cyclin-dependent kinase 9. Description: PROTAC activity at CRBN/CDK9 in human NCI-H69 cells assessed as induction of CDK9 degradation at 10 nM by Western blot analysis relative to control. Type of assay: cell-based.
In assay [17] the target is CDK3/Cyclin E (Homo sapiens) (UniProt P24864+Q00526). The assay can be described thus: Inhibition of CDK3/cyclin E1 (unknown origin) at 10 nM relative to control. Type of assay: protein-complex assay.
CDK3/Cyclin E (Homo sapiens), sequence (P24864 whole entry, looked up): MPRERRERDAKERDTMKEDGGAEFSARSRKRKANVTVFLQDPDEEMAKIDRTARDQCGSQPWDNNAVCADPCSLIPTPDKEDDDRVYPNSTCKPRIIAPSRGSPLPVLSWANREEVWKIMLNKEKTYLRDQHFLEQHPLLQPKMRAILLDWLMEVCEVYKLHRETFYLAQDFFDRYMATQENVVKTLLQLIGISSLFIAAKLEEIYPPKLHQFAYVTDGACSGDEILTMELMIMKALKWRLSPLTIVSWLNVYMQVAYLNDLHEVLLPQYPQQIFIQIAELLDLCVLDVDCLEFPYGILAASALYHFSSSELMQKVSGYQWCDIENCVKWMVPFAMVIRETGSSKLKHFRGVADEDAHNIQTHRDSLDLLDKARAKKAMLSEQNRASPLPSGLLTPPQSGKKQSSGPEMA
CDK3/Cyclin E (Homo sapiens), sequence (Q00526 whole entry, looked up): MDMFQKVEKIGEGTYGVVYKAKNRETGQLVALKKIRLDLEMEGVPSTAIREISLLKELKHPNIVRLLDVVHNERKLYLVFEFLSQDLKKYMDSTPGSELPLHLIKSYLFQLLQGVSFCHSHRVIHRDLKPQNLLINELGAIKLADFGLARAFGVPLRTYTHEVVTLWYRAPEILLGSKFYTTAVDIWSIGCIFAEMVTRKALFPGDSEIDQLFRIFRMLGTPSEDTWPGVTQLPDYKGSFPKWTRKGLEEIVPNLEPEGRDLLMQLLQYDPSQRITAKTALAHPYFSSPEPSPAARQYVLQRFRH
The test system of assay [18] is NCI-H446. Description: Antitumor activity against human NCI-H446 cells xenografted in female NU-NU mouse model assessed as increase in cleaved caspase-3 expression in tumor at 12.5 to 25 mg/kg, po administered once daily for 15 days by immunohistochemical staining based analysis. The conditions noted are these: dose 12.5-25 mg/kg, time 15.0 day. Type of assay: functional, organism-based.

Assay [19] addresses T1, Protein cereblon/Cyclin-dependent kinase 9. Description: In vivo PROTAC activity at CRBN/CDK9 in female BALB/c nude mouse xenografted with human NCI-H446 cells assessed as induction of CDK9 degradation in tumor at 25 mg/kg, po measured after 6 to 12 hrs by Western blot analysis. The conditions noted are these: time 6-12 hrs. Type of assay: functional, organism-based.
Assay [20] shares this target. The assay can be described thus: PROTAC activity at CRBN/CDK9 in human NCI-H69 cells assessed as induction of CDK9 degradation preincubated with MG132 for 2 hrs followed by compound addition and measured after 3 hrs by Western blot analysis. It counts as cell-based.
Assay [21] relates to NCI-H69. Description: Induction of apoptosis in human NCI-H69 cells incubated for 36 hrs by Annexin V-FITC/PI staining based flow cytometric analysis. Type of assay: functional, cell-based. To be noted: dose 1-8 nM. Background: A flow cytometer gives signals particle by particle.
The test system of assay [22] is NCI-H69. Description: Inhibition of colony formation in human NCI-H69 cells at 2 to 4 nM incubated for 8 days by crystal violet staining based analysis. Type of assay: functional, cell-based. To be noted: dose 2-4 nM, time 8.0 day.
For assay [23], the target named is CDK4/Cyclin D3 (Homo sapiens) (UniProt P11802+P30281). The assay can be described thus: Inhibition of CDK4/cyclin D3 (unknown origin) at 10 nM relative to control. It counts as protein-complex assay.
The target of assay [24] is T1, Protein cereblon/Cyclin-dependent kinase 9. The assay can be described thus: PROTAC activity at CRBN/CDK9 in human NCI-H446 cells assessed as induction of CDK9 degradation at 10 nM by Western blot analysis relative to control. Type of assay: cell-based.

The source made the active and inactive calls. The rule behind the calls is not given here.

Experimental findings from ChEMBL document CHEMBL6121063, “Identification of a Potent and Selective CDK9 Degrader as a Targeted Therapeutic Option for the Treatment of Small-Cell Lung Cancer” (J Med Chem, 2025) are described below.

T1 sequence (P50750 whole entry, looked up): as the sequence (P50750 whole entry) above
T1 sequence (Q96SW2 whole entry, looked up): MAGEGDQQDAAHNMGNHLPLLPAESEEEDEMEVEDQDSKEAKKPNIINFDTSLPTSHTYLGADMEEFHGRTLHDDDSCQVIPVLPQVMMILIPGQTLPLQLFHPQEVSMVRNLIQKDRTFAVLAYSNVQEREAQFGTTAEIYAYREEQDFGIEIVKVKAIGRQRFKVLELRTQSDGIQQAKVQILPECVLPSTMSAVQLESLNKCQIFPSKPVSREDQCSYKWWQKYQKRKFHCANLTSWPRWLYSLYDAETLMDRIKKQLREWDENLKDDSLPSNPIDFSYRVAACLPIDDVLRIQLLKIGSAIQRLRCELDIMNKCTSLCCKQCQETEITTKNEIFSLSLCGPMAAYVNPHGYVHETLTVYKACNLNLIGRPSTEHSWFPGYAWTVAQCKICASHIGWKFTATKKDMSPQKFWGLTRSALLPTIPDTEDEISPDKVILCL

As a reminder, the inhibition is the change of the read-out against control, counted positive when it falls. For `O=C1CCC(Nc2cccc(N3CCN(CC4CCN(CC(=O)N5CCC(NC(=O)c6n[nH]cc6NC(=O)c6c(Cl)cccc6Cl)CC5)CC4)CC3)c2)C(=O)N1` (centres undefined), the inhibition entry in assay [1], in assay [3], in assay [9], in assay [11] and in assay [22] was “Active” throughout. In addition, the Activity result was “Not active; Very Short Self-Renewal Period For Cdk9 Observed” in [2]; “Time-dependent-effect” in assay [10]; “Dose-dependent-effect” in assay [14]; 91.2% in assay [16]; “Dose-dependent-effect” in assay [21]; 93.4% in assay [24]. The outcome in assay [4], in assay [6], in assay [7], in assay [8], in assay [12] and in assay [13] was Active. Besides, the result in assay [15], in [18] and in [19] was Active. Moreover, the values for the inhibition in assay [5], in assay [17] and in assay [23] were 56%, 31% and 55%, respectively. For the same compound, the result in assay [20] was inactive.
